Data: publication PMC12048447, “PANTAX: a phase Ib clinical trial of the efflux pump inhibitor SCO-101 in combination with gemcitabine and nab-paclitaxel in non-resectable or metastatic pancreatic cancer” (Investigational New Drugs, 2025)

Assay: PANTAX phase Ib: safety, DLT and MTD of SCO-101 with Gem and Nab
Assay type: in vivo
Method: ORR, clinical benefit rate (CBR), median progression free survival (mPFS), and mOS were included as secondary end points.
Patients were recruited at four centers, two in Denmark and two in Germany.
Study treatment is illustrated in Fig. 1. […] Chemotherapy with Gem and Nab was given days 6, 13, and 20 in each cycle. […] During the first cycle, patients received treatment with chemotherapy at a dose corresponding to 80% of the recommended dose, i.e., 100 mg/m^2 Nab and 800 mg/m^2 Gem given as infusions over 30 min. […] The dose of chemotherapy was further adjusted to the patient´s tolerability in accordance with the chemotherapy-product monographs. Standard antiemetics were allowed as was the use of granulocyte colony-stimulating factor (G-CSF) in case of treatment-induced neutropenia.
Toxicity was assessed at baseline and weekly at days 1, 6, 13, and 20 before each treatment.

[1] = 50 mg SCO-101 (cohort 1, 3 patients) + Gem/Nab, any CTC-AE grade
[2] = 50 mg SCO-101 (cohort 1, 3 patients) + Gem/Nab, grade ≥ 3
[3] = 100 mg SCO-101 (cohort 2, 3 patients) + Gem/Nab, any CTC-AE grade
[4] = 150 mg SCO-101 (cohort 3, 6 patients) + Gem/Nab, any CTC-AE grade
[5] = 150 mg SCO-101 (cohort 3, 6 patients) + Gem/Nab, grade ≥ 3
[6] = 200 mg SCO-101 (cohort 4, 6 patients) + Gem/Nab, any CTC-AE grade
[7] = 250 mg SCO-101 (cohort 5, 4 patients) + Gem/Nab, any CTC-AE grade
[8] = 250 mg SCO-101 (cohort 5, 4 patients) + Gem/Nab, grade ≥ 3
[9] = 22 patients, all dose levels, with Gem and Nab
[10] = sum of cohorts (22 patients) + Gem/Nab, any CTC-AE grade
[11] = sum of cohorts (22 patients) + Gem/Nab, grade ≥ 3

## O=C(Nc1cc(C(F)(F)F)cc(C(F)(F)F)c1)Nc1ccc(Br)cc1-c1nnn[nH]1 [SCO-101]
[1]
  Alopecia, patients with treatment-related AE: 2
  Athralgia, patients with treatment-related AE: 1
  Chills, patients with treatment-related AE: 1
  Diarrhea, patients with treatment-related AE: 3
  Dizziness, patients with treatment-related AE: 1
  Fatigue, patients with treatment-related AE: 3
  Headache, patients with treatment-related AE: 1
  Hypertension, patients with treatment-related AE: 1
  Nail disorder, patients with treatment-related AE: 1
  Nausea, patients with treatment-related AE: 3
  Pain, patients with treatment-related AE: 2
  Paraestesia, patients with treatment-related AE: 1
  Rash, patients with treatment-related AE: 2
  ↑B-bilirubin, patients with treatment-related AE: 2
  ↑B-lactate, patients with treatment-related AE: 1
  ↓B-hemoglobin, patients with treatment-related AE: 2
  ↓B-lymphocytes, patients with treatment-related AE: 3
  ↓B-neutrophils, patients with treatment-related AE: 3
  ↓B-thrombocytes, patients with treatment-related AE: 3
[2]
  Chills, patients with treatment-related AE: 1
  Hypertension, patients with treatment-related AE: 1
  ↑B-lactate, patients with treatment-related AE: 1
  ↓B-lymphocytes, patients with treatment-related AE: 2
  ↓B-neutrophils, patients with treatment-related AE: 3
[3]
  Alopecia, patients with treatment-related AE: 2
  Candidiasis, patients with treatment-related AE: 1
  Diarrhea, patients with treatment-related AE: 3
  Dysgeusia, patients with treatment-related AE: 1
  Fatigue, patients with treatment-related AE: 1
  Nail disorder, patients with treatment-related AE: 1
  Nausea, patients with treatment-related AE: 3
  Oedema, patients with treatment-related AE: 1
  Paraestesia, patients with treatment-related AE: 2
  Rash, patients with treatment-related AE: 2
  Stomatitis, patients with treatment-related AE: 1
  ↑B-bilirubin, patients with treatment-related AE: 1
  ↓B-hemoglobin, patients with treatment-related AE: 1
  ↓B-neutrophils, patients with treatment-related AE: 1
100 mg SCO-101 (cohort 2, 3 patients) + Gem/Nab, grade ≥ 3
  Paraestesia, patients with treatment-related AE: 1
[4]
  Alopecia, patients with treatment-related AE: 2
  Athralgia, patients with treatment-related AE: 1
  Candidiasis, patients with treatment-related AE: 1
  Constipation, patients with treatment-related AE: 1
  Diarrhea, patients with treatment-related AE: 3
  Fatigue, patients with treatment-related AE: 2
  Headache, patients with treatment-related AE: 1
  Jaundice, patients with treatment-related AE: 1
  Nausea, patients with treatment-related AE: 2
  Pain, patients with treatment-related AE: 1
  Rash, patients with treatment-related AE: 1
  Stomatitis, patients with treatment-related AE: 2
  TTP, patients with treatment-related AE: 1
  Vomitting, patients with treatment-related AE: 2
  ↑B-bilirubin, patients with treatment-related AE: 2
  ↓B-hemoglobin, patients with treatment-related AE: 4
  ↓B-neutrophils, patients with treatment-related AE: 1
  ↓B-thrombocytes, patients with treatment-related AE: 1
[5]
  Fatigue, patients with treatment-related AE: 1
  Jaundice, patients with treatment-related AE: 1
  TTP, patients with treatment-related AE: 1
  ↑B-bilirubin, patients with treatment-related AE: 1
  ↓B-hemoglobin, patients with treatment-related AE: 2
150 mg SCO-101, one patient
  blood bilirubin in the DLT case: 24 µmol/L
[6]
  Alopecia, patients with treatment-related AE: 4
  Constipation, patients with treatment-related AE: 1
  Diarrhea, patients with treatment-related AE: 2
  Dizziness, patients with treatment-related AE: 1
  Dysgeusia, patients with treatment-related AE: 1
  Fatigue, patients with treatment-related AE: 4
  Headache, patients with treatment-related AE: 1
  Jaundice, patients with treatment-related AE: 1
  Loss of appetite, patients with treatment-related AE: 2
  Nausea, patients with treatment-related AE: 3
  Oedema, patients with treatment-related AE: 1
  Pain, patients with treatment-related AE: 2
  Paraestesia, patients with treatment-related AE: 1
  Rash, patients with treatment-related AE: 2
  Stomatitis, patients with treatment-related AE: 4
  Vomitting, patients with treatment-related AE: 1
  ↑B-bilirubin, patients with treatment-related AE: 4
  ↓B-hemoglobin, patients with treatment-related AE: 3
  ↓B-neutrophils, patients with treatment-related AE: 1
  ↓B-thrombocytes, patients with treatment-related AE: 2
200 mg SCO-101 (cohort 4, 6 patients) + Gem/Nab, grade ≥ 3
  ↓B-neutrophils, patients with treatment-related AE: 1
[7]
  Candidiasis, patients with treatment-related AE: 1
  Constipation, patients with treatment-related AE: 1
  Dysgeusia, patients with treatment-related AE: 1
  Fatigue, patients with treatment-related AE: 2
  Jaundice, patients with treatment-related AE: 1
  Nausea, patients with treatment-related AE: 2
  Paraestesia, patients with treatment-related AE: 3
  Rash, patients with treatment-related AE: 1
  ↑B-bilirubin, patients with treatment-related AE: 2
  ↓B-hemoglobin, patients with treatment-related AE: 1
  ↓B-neutrophils, patients with treatment-related AE: 1
  ↓B-thrombocytes, patients with treatment-related AE: 2
[8]
  ↓B-neutrophils, patients with treatment-related AE: 1
  ↓B-thrombocytes, patients with treatment-related AE: 2
22 patients, all dose levels
  cases of clinical jaundice associated with bilirubin elevation: three
  patients with SAEs (nineteen SAEs): 11 patients
  suspected unexpected serious adverse reactions (SUSARs): No suspected unexpected serious adverse reactions
[9]
  cases with elevation of blood bilirubin: 55%
  patients with a SCO-101-related AE grade 4 (thrombocytopenia): 9%
SCO-101 daily for 6 days, bi-weekly schedule, with 80% dose of Gem and Nab, PDAC patients
  maximum tolerated dose (MTD): 200 mg
Dose level 3, 150 mg SCO-101, six patients, with Gem and Nab
  dose-limiting toxicities (DLTs), first cycle: One
Dose level 4, 200 mg SCO-101, with Gem and Nab
  dose-limiting toxicities (DLTs), first cycle: No DLTs
Dose level 5, 250 mg SCO-101, thrombocytopenia AE grade 4, with Gem and Nab
  dose-limiting toxicities (DLTs), first cycle: two
Not accompanied by biochemical hepatotoxicity
  time to resolution of bilirubin elevation: ≤ 1 week
Of nineteen SAEs, transiently increased blood bilirubin AE grade 3 at 150 mg SCO-101
  SAEs deemed related to SCO-101: one
[10]
  Alopecia, patients with treatment-related AE: 10
  Athralgia, patients with treatment-related AE: 2
  Candidiasis, patients with treatment-related AE: 3
  Chills, patients with treatment-related AE: 1
  Constipation, patients with treatment-related AE: 3
  Diarrhea, patients with treatment-related AE: 11
  Dizziness, patients with treatment-related AE: 2
  Dysgeusia, patients with treatment-related AE: 3
  Fatigue, patients with treatment-related AE: 12
  Headache, patients with treatment-related AE: 3
  Hypertension, patients with treatment-related AE: 1
  Jaundice, patients with treatment-related AE: 3
  Loss of appetite, patients with treatment-related AE: 2
  Nail disorder, patients with treatment-related AE: 2
  Nausea, patients with treatment-related AE: 13
  Oedema, patients with treatment-related AE: 2
  Pain, patients with treatment-related AE: 5
  Paraestesia, patients with treatment-related AE: 7
  Rash, patients with treatment-related AE: 8
  Stomatitis, patients with treatment-related AE: 7
  TTP, patients with treatment-related AE: 1
  Vomitting, patients with treatment-related AE: 3
  ↑B-lactate, patients with treatment-related AE: 1
  ↓B-hemoglobin, patients with treatment-related AE: 11
  ↓B-lymphocytes, patients with treatment-related AE: 3
  ↓B-neutrophils, patients with treatment-related AE: 7
  ↓B-thrombocytes, patients with treatment-related AE: 8
[11]
  Chills, patients with treatment-related AE: 1
  Fatigue, patients with treatment-related AE: 1
  Hypertension, patients with treatment-related AE: 1
  Jaundice, patients with treatment-related AE: 1
  Paraestesia, patients with treatment-related AE: 1
  TTP, patients with treatment-related AE: 1
  ↑B-lactate, patients with treatment-related AE: 1
  ↓B-hemoglobin, patients with treatment-related AE: 2
  ↓B-lymphocytes, patients with treatment-related AE: 2
  ↓B-neutrophils, patients with treatment-related AE: 5
  ↓B-thrombocytes, patients with treatment-related AE: 2
